Data as given in PMC9014415, “Repositioning of a Diaminothiazole Series Confirmed to Target the Cyclin-Dependent Kinase CRK12 for Use in the Treatment of African Animal Trypanosomiasis” (Journal of Medicinal Chemistry, 2022).
Values joined by “and” are separate entries in the source; they are usually repeats but may differ in a detail not shown here. Equal values may be shown once. Marks after values point to notes of the source that are not given here.

Experiments:
[1] = Ames test for potential genotoxicity
[2] = tested on: bloodstream T. brucei resistant lines R1-R3; experiment: Sensitivity of compound 2-resistant T. brucei lines compared to wild-type; assay type: cell-based, Trypanosoma brucei
Description: To gain further insight into the molecular target(s) of this series, resistance was generated against compound 2 in a drug-sensitive clonal line of bloodstream T. brucei. Trypanosomes were cultured in the continuous presence of compound 2 for a total of 122 days. […] Following drug selection, resistant parasites were cloned by limiting dilution. The relative sensitivities of these cloned cell lines were established and compared to that of wild-type parasites. Resistant lines R1 and R3 were 10-fold resistant, while R2 was 90-fold resistant to compound 2 (Figure 4A). […] In addition, all three clones had lost a significant part of chromosome 10 and gained additional copies of a region of chromosome 8. All three resistant lines carried a mutation in Tb927.4.4590, a gene encoding a non-essential putative kinase and in Tb927.11.10300, encoding a hypothetical protein. Of particular note, all three clones (R1–3) shared a non-synonymous substitution (Gly492Ala) in Tb927.11.12310, the gene encoding CRK12. In addition, R2 harbored a second non-synonymous substitution (Leu482Phe) in CRK12 (Table S10). […]
(§1) in cattle). Blood from the donor animals, diluted with phosphate buffered glucose was used to infect recipient animals IV via the jugular vein. Infection was with approximately 100,000 fresh viable parasites. The compounds were given IM. Each injection was up to 10 mL and given in neck in the following order: left anterior third, right anterior third, left posterior third and right posterior third.
(§2) Animals over 240 kg required a fifth injection site for the IVP, and this was given in the left or right hind leg. Cattle were randomised to treatments. Parasitaemia was monitored 3 times per calendar week, though collection of blood and assessment of clinical symptoms. Blood samples were also […]
treatment). Cattle were also monitored for PCV, clinical symptoms, body weight and temperature […]
4. Mode of action studies
4.1 Resistant line generation […]
Sequencing reads (100 bp) were aligned to the Trypanosoma brucei TREU927 genome (v39; tritrypDB) using Bowtie210 and Samtools11 software. […]

[3] = Comparative cattle PK, IM compared to SC (NorthWest Biopharm); assay type: in vivo; conditions: Aberdeen Angus crossbreed and Limousin crossbreed, bovine, blood, 5 mg/kg free base
Description: Kolliphor EL, N-methyl pyrrolidone, 2-pyrrolidone and 11% water suitable for injection) […]
Comparative cattle PK (Northwestern Biopharm)
The pharmacokinetics for compound 2 when dosed as free base in the best tolerated formulation: […]
Kolliphor EL, N-methyl pyrrolidone, 2-pyrrolidone and 11% water at 5 mg/kg was assessed, IM
compared to SC. Bioanalysis of blood
samples was conducted at the University of Dundee. […]

[4] = Injection site tolerance in the IM efficacy study in African cattle; assay type: in vivo; conditions: free base in Kolliphor EL, NMP, 2-pyrrolidone, 11% water
Description: Compound 2 was only partially curative for cattle infected with T. congolense following two doses (1/4 and 2/4 in different treatment arms), administered 15 h apart (Table 4, Table S8, and Figure S9a). The curative regimen aligned well with PK/PD data from mice. However, cattle infected with T. vivax and dosed IM were not cured despite the fact that PK data from some T. vivax-infected cattle (Table 4, Table S9, and Figure S9b) predicted that a dosing at this level should have been curative based on mouse data. This lack of efficacy at exposures expected to deliver a cure is even more perplexing when the metabolism of compound 2 is considered. […] The rate and extent of this metabolism is higher in T. vivax-infected animals compared to those infected with T. congolense (Table S10) for reasons that are not clear.

T. congolense = experiment: Cattle efficacy for compound 2, intramuscular (CIRDES), T. congolense; assay type: in vivo, Trypanosoma congolense
Description: (§3) Compound 2 was progressed into IM efficacy studies dosing at 10 mg/kg either once or twice, 15 h apart, in cattle infected with T. congolense or T. vivax. […]
(§4) 3.5 Cattle efficacy for compound 2, intramuscular (CIRDES)
(§5) Felani-zebu cattle were housed in a fly-proof facility, acclimatised for 15 d prior to the study, cattle were treated with an anthelmintic, an ectoparasiticide and an antibiotic. Donor animals were infected with stabilates (frozen stocks) of either T. congolense KOT256 (resistant to 7 mg/kg diminazene in cattle) or T. vivax Gando Bongaly (resistant to diminazene 7 mg/kg and to isometamidium 1 mg/kg […]
as §1, §2
(§6) treatment). […]

T. vivax = experiment: Cattle efficacy for compound 2, intramuscular (CIRDES), T. vivax; assay type: in vivo, Trypanosoma vivax
Description: as §3, §4, §5, §1, §2, §6

Compound: CC(C)CS(=O)(=O)N[C@H]1CC[C@H](Nc2nc(N)c(C(=O)c3c(F)cccc3F)s2)CC1 [Compound 1, N-((trans)-4-((4-Amino-5-(2,6-difluorobenzoyl)thiazol-2-yl)amino)cyclohexyl)-2-methylpropane-1-sulfonamide]
- Ames [1]: negative

Compound: CC(C)CS(=O)(=O)N[C@H]1CC[C@H](Nc2nc(N)c(C(=O)c3c(F)cc(CN(C)C)cc3F)s2)CC1 [Compound 2, N-(trans)-[4-[[4-Amino-5-[4-(dimethylaminomethyl)-2,6-difluoro-benzoyl]thiazol-2-yl]amino]cyclohexyl]-2-methyl-propane-1-sulfonamide]
- Resistance compared to wild-type ([2]; resistant line R1): 10 fold
- Resistance compared to wild-type ([2]; resistant line R2): 90 fold
- Resistance compared to wild-type ([2]; resistant line R3): 10 fold
- AUC ([3]; IM): 3170 ng·h/mL
- Cmax ([3]; IM): 360 ng/mL
- Tmax ([3]; IM): 0.5 h
- AUC ([3]; SC): 967 ng·h/mL
- Cmax ([3]; SC): 86 ng/mL
- Tmax ([3]; SC): 3 h
- Injection site tolerance [4]: injection site tolerance issues
- Cattle cured (T. congolense; 10 mg/kg IM twice, 15 h apart, treatment groups T2 and T4 together): three out of the eight
- efficacy (T. congolense; T1, 10 mg/kg IM once, cured/animals, 100 days): 0/6
- Efficacy, individual animals (T. congolense; T1 single dose IM, animals 1903, 1910, 1913, 1924, 1935, 1936): no
- efficacy (T. congolense; T2, 10 mg/kg IM twice, 15 h apart, cured/animals): 1/4
- Efficacy, individual animals (T. congolense; T2 dosed twice IM, animals 1905, 1906, 1909, 1917): no (3×) and yes
- efficacy (T. congolense; T4, saline twice, followed by compound 2 rescue dose twice IM 5 days later): 2/4
- Efficacy, individual animals (T. congolense; T4 after 2 (two rescue doses IM), animals 1914, 1921, 1923, 1927): no (2×) and yes (2×)
- efficacy (T. vivax; T5, 10 mg/kg IM once): 0/5 ^a
- Efficacy, individual animals (T. vivax; T5 dosed once IM, animals 1907, 1918, 1932, 1933, 1940): No
- efficacy (T. vivax; T6, 10 mg/kg IM twice, 15 h apart): 0/3 ^a
- Efficacy, individual animals (T. vivax; T6 dosed twice IM, animals 1902, 1926, 1929): No
- efficacy (T. vivax; T9, saline twice, followed by compound 2 rescue dose twice IM 4 days later): 0/2 ^a
- Efficacy, individual animals (T. vivax; T9 after 2 (rescue IM), animals 1931, 1934): No and no
- Cattle cured (T. vivax; T. vivax-infected cattle, 10 mg/kg IM once or twice, 10 mg/kg): none and not cured
